Assay results from patent US7608619B2, “Substituted oxazole compounds with analgesic activity” (Gruenenthal GmbH, priority 2005, dated 2009).

Biological target: T1, human μ-opiate receptor (Homo sapiens, UniProt P35372)
T1 construct: purchased Nen company, Zaventem, Belgium RB-HOM; host or cells: CHO-K1 cells (membrane preparation)
Assay: Affinity for the human μ-opiate receptor ([3H]-naloxone displacement, SPA, CHO-K1 membrane preparation)
Conditions: test substance 1 μmole/l, displacement of 1 nmole/l [3H]-naloxone, percentage inhibition of the specific binding; for inhibition at 1 µM: read-out: μ-opioid receptor, % inhibition [1 μM]
Protocol: Method for Determining the Affinity for the Human μ-Opiate Receptor
The receptor affinity for the human μ-opiate receptor is determined in a homogeneous batch in microtiter plates. For this purpose dilution series of the substances to be tested are incubated for 90 minutes at room temperature with a receptor membrane preparation (15-40 μg protein/250 μl incubation batch) of CHO-K1 cells, which express the human μ-opiate receptor (RB-HOM receptor membrane preparation from the Nen company, Zaventem, Belgium), in the presence of 1 nmole/l of the radioactive ligand [^3H]-naloxone (NET719, Nen company, Zaventem, Belgium) and 1 mg WGA-SPA beads (wheat germ agglutinin SPA beads from Amersham/Pharmacia, Freiburg, Germany) in a total volume of 250 μl. 50 mmole/l of Tris-HCl supplemented with 0.05% sodium azide and with 0.06% bovine serum albumin is used as incubation buffer. In order to determine the non-specific binding, 25 μmole/l of naloxone is additionally added. After the end of the 90 minutes' incubation time the microtiter plates are centrifuged for 20 minutes at 1000 g and the radioactivity is measured in a beta counter (Microbeta-Trilux, PerkinElmer Wallac, Freiburg, Germany). The percentage displacement of the radioactive ligand from its binding to the human μ-opiate receptor at a concentration of the test substances of 1 μmole/l is determined and is given as percentage inhibition of the specific binding.

T1 sequence (P35372 whole entry): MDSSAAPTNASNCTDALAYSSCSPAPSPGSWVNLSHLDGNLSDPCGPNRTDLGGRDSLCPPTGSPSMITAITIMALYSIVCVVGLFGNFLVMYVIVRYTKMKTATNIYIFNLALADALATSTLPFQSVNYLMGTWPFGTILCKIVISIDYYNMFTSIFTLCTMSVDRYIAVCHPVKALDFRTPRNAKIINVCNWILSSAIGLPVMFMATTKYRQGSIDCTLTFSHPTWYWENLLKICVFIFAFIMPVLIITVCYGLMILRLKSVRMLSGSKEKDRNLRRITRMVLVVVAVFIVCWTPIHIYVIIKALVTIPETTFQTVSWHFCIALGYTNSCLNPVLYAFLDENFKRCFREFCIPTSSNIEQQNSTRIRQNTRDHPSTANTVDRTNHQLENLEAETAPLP

| Compound | inhibition at 1 µM [%] | μ-opioid receptor, % inhibition [1 μM] [%] |
| --- | --- | --- |
| CN(C)C(c1ccc(F)cc1)C1CCC(C(c2nc(Cc3ccccc3)c(N3CCCC3)o2)N2CCCCC2)CC1 (centres unmarked) [compound 17, [{4-[(4-benzyl-5-pyrrolidin-1-yl-oxazol-2-yl)-piperidin-1-yl-methyl]-cyclohexyl}-(4-fluorophenyl)-methyl]-dimethylamine] | 76 | – |
| CN(C)C(c1ccc(F)cc1)C1CCC(C(c2nc(Cc3ccccc3)c(N3CCOCC3)o2)N(C)c2ccccc2)CC1 (centres unmarked) [compound 18, ((4-benzyl-5-morpholin-4-yl-oxazol-2-yl)-{4-[dimethylamino-(4-fluorophenyl)-methyl]-cyclohexyl}-methyl)-methylphenylamine] | 65 | – |
| CC1CCN(c2oc(C(C3CCC(C(c4ccc(F)cc4)N(C)C)CC3)N(C)c3ccccc3)nc2Cc2ccccc2)CC1 (centres unmarked) [compound 19, ([4-benzyl-5-(4-methylpiperidin-1-yl)-oxazol-2-yl]-{4-[dimethylamino-(4-fluorophenyl)-methyl]-cyclohexyl}-methyl)-methylphenylamine] | 63 | – |
| CCN(CC)C(c1nc(Cc2ccccc2)c(N2CCC(C)CC2)o1)C1CCC(C(c2ccc(Cl)cc2)N(C)C)CC1 (centres unmarked) [compound 20, ([4-benzyl-5-(4-methylpiperidin-1-yl)-oxazol-2-yl]-{4-[(4-chlorophenyl)-dimethylaminomethyl]-cyclohexyl}-methyl)-diethylamine] | 63 | – |
| CCN(CC)C(c1nc(Cc2ccccc2)c(N(C)Cc2ccccc2)o1)C1CCC(C(c2ccc(Cl)cc2)N(C)C)CC1 (centres unmarked) [compound 21, Benzyl-[4-benzyl-2-({4-[(4-chlorophenyl)-dimethylaminomethyl]-cyclohexyl}-diethylaminomethyl)-oxazol-5-yl]-methylamine] | 72 | – |
| CN(Cc1ccccc1)c1oc(C(C2CCC(C(c3ccc(Cl)cc3)N(C)C)CC2)N(C)c2ccccc2)nc1Cc1ccccc1 (centres unmarked) [compound 22, Benzyl-{4-benzyl-2-[{4-[(4-chlorophenyl)-dimethylaminomethyl]-cyclohexyl}-(methylphenylamine)-methyl]-oxazol-5-yl}-methylamine] | – | 64 |
| CN(C)C(c1cccs1)C1CCC(C(c2nc(Cc3ccccc3)c(N3CCC(Cc4ccccc4)CC3)o2)N2CCCCC2)CC1 (centres unmarked) [compound 23, [(4-{[4-benzyl-5-(4-benzyl-piperidin-1-yl)-oxazol-2-yl]-piperidin-1-yl-methyl}-cyclohexyl)-thiophen-2-yl-methyl]-dimethylamine] | 70 | – |
| CC1CCN(c2oc(C(C3CCC(C(c4cccs4)N(C)C)CC3)N3CCCCC3)nc2Cc2ccccc2)CC1 (centres unmarked) [compound 24, [(4-{[4-benzyl-5-(4-methylpiperidin-1-yl)-oxazol-2-yl]-piperidin-1-yl-methyl}-cyclohexyl)-thiophen-2-yl-methyl]-dimethylamine] | 70 | – |
| CN(Cc1ccccc1)c1oc(C(C2CCC(C(c3cccs3)N(C)C)CC2)N2CCCCC2)nc1Cc1ccccc1 (centres unmarked) [compound 25, Benzyl-(4-benzyl-2-{[4-(dimethylamino-thiophen-2-yl-methyl)-cyclohexyl]-piperidin-1-yl-methyl}-oxazol-5-yl)-methylamine] | 80 | – |
| CN(C)C(c1cccs1)C1CCC(C(c2nc(Cc3ccccc3)c(N3CCN(c4ccccc4)CC3)o2)N2CCCCC2)CC1 (centres unmarked) [compound 26, [(4-{[4-benzyl-5-(4-phenylpiperazin-1-yl)-oxazol-2-yl]-piperidin-1-yl-methyl}-cyclohexyl)-thiophen-2-yl-methyl]-dimethylamine] | 85 | – |
| CCN(CC)C(c1nc(Cc2ccccc2)c(N2CCC(Cc3ccccc3)CC2)o1)C1CCC(C(c2cccs2)N(C)C)CC1 (centres unmarked) [compound 27, {[4-benzyl-5-(4-benzyl-piperidin-1-yl)-oxazol-2-yl]-[4-(dimethylamino-thiophen-2-yl-methyl)-cyclohexyl]-methyl}-diethylamine] | 78 | – |
| CCN(CC)C(c1nc(Cc2ccccc2)c(N2CCN(Cc3ccccc3)CC2)o1)C1CCC(C(c2cccs2)N(C)C)CC1 (centres unmarked) [compound 28, {[4-benzyl-5-(4-benzyl-piperazin-1-yl)-oxazol-2-yl]-[4-(dimethylamino-thiophen-2-yl-methyl)-cyclohexyl]-methyl}-diethylamine] | 72 | – |
| CCN(CC)C(c1nc(Cc2ccccc2)c(N2CCC(C)CC2)o1)C1CCC(C(c2cccs2)N(C)C)CC1 (centres unmarked) [compound 29, {[4-benzyl-5-(4-methylpiperidin-1-yl)-oxazol-2-yl]-[4-(dimethylamino-thiophen-2-yl-methyl)-cyclohexyl]-methyl}-diethylamine] | 95 | – |
| CCN(CC)C(c1nc(Cc2ccccc2)c(N(C)Cc2ccccc2)o1)C1CCC(C(c2cccs2)N(C)C)CC1 (centres unmarked) [compound 30, Benzyl-(4-benzyl-2-{diethylamino-[4-(dimethylaminothiophen-2-yl-methyl)-cyclohexyl]-methyl}-oxazol-5-yl)-methylamine] | 92 | – |
| CCN(CC)C(c1nc(Cc2ccccc2)c(N2CCN(c3ccccc3)CC2)o1)C1CCC(C(c2cccs2)N(C)C)CC1 (centres unmarked) [compound 31, {[4-benzyl-5-(4-phenylpiperazin-1-yl)-oxazol-2-yl]-[4-(dimethylamino-thiophen-2-yl-methyl)-cyclohexyl]-methyl}-diethylamine] | 62 | – |
| CN(C)C(c1cccs1)C1CCC(C(c2nc(Cc3ccccc3)c(N3CCC(Cc4ccccc4)CC3)o2)N2CCN(Cc3ccccc3)CC2)CC1 (centres unmarked) [compound 32, ({4-[[4-benzyl-5-(4-benzylpiperidin-1-yl)-oxazol-2-yl]-(4-benzylpiperazin-1-yl)-methyl]-cyclohexyl}-thiophen-2-yl-methyl)-dimethylamine] | 75 | – |
| CC1CCCN(c2oc(C(C3CCC(C(c4ccc(F)cc4)N(C)C)CC3)N3CCCCC3)nc2Cc2ccccc2)C1 (centres unmarked) [compound 33, [(4-{[4-benzyl-5-(3-methylpiperidin-1-yl)-oxazol-2-yl]-piperidin-1-yl-methyl}-cyclohexyl)-(4-fluorophenyl)-methyl]-dimethylamine] | 65 | – |
| CCN(CC)C(c1nc(Cc2ccccc2)c(N(C)CCc2ccccc2)o1)C1CCC(C(c2ccc(F)cc2)N(C)C)CC1 (centres unmarked) [compound 34, [4-benzyl-2-(diethylamino-{4-[dimethylamino-(4-fluorophenyl)-methyl]-cyclohexyl}-methyl)-oxazol-5-yl]-methylphenethylamine] | 84 | – |
| CCN(CC)c1oc(C(C2CCC(C(c3ccc(F)cc3)N(C)C)CC2)N(CC)CC)nc1Cc1ccccc1 (centres unmarked) [compound 35, [4-benzyl-2-(diethylamino-{4-[dimethylamino-(4-fluorophenyl)-methyl]-cyclohexyl}-methyl)-oxazol-5-yl]-diethylamine] | 61 | – |
| CCN(CC)C(c1nc(Cc2ccccc2)c(N2CCCC(C)C2)o1)C1CCC(C(c2ccc(F)cc2)N(C)C)CC1 (centres unmarked) [compound 36, ([4-benzyl-5-(3-methylpiperidin-1-yl)-oxazol-2-yl]-{4-[dimethylamino-(4-fluorophenyl)-methyl]-cyclohexyl}-methyl)-diethylamine] | 69 | – |
| CC1CC(C)CN(c2oc(C(C3CCC(C(c4ccc(F)cc4)N(C)C)CC3)N(C)c3ccccc3)nc2Cc2ccccc2)C1 (centres unmarked) [compound 37, ([4-benzyl-5-(3,5-dimethylpiperidin-1-yl)-oxazol-2-yl]-{4-[dimethylamino-(4-fluorophenyl)-methyl]-cyclohexyl}-methyl)-methylphenylamine] | 68 | – |
| CN(CCc1ccccc1)c1oc(C(C2CCC(C(c3ccc(F)cc3)N(C)C)CC2)N(C)c2ccccc2)nc1Cc1ccccc1 (centres unmarked) [compound 38, {4-benzyl-2-[{4-[dimethylamino-(4-fluorophenyl)-methyl]-cyclohexyl}-(methylphenylamine)-methyl]-oxazol-5-yl}-methylphenethylamine] | – | 62 |
| CCN(CC)c1oc(C(C2CCC(C(c3ccc(Cl)cc3)N(C)C)CC2)N2CCCCC2)nc1Cc1ccccc1 (centres unmarked) [compound 39, [4-benzyl-2-({4-[(4-chlorophenyl)-dimethylaminomethyl]-cyclohexyl}-piperidin-1-yl-methyl)-oxazol-5-yl]-diethylamine] | 75 | – |
| CC1CCCN(c2oc(C(C3CCC(C(c4ccc(Cl)cc4)N(C)C)CC3)N3CCCCC3)nc2Cc2ccccc2)C1 (centres unmarked) [compound 40, [(4-{[4-benzyl-5-(3-methylpiperidin-1-yl)-oxazol-2-yl]-piperidin-1-yl-methyl}-cyclohexyl)-(4-chlorophenyl)-methyl]-dimethylamine] | 60 | – |
| CCN(CC)C(c1nc(Cc2ccccc2)c(N2CC(C)CC(C)C2)o1)C1CCC(C(c2ccc(Cl)cc2)N(C)C)CC1 (centres unmarked) [compound 41, ([4-benzyl-5-(3,5-dimethylpiperidin-1-yl)-oxazol-2-yl]-{4-[(4-chlorophenyl)-dimethylaminomethyl]-cyclohexyl}-methyl)-diethylamine] | 64 | – |
| CC1CC(C)CN(c2oc(C(C3CCC(C(c4ccc(Cl)cc4)N(C)C)CC3)N(C)c3ccccc3)nc2Cc2ccccc2)C1 (centres unmarked) [compound 42, ([4-benzyl-5-(3,5-dimethylpiperidin-1-yl)-oxazol-2-yl]-{4-[(4-chlorophenyl)-dimethylaminomethyl]-cyclohexyl}-methyl)-methylphenylamine] | 79 | – |
